Experimental findings from patent publication US8663915B2, “Methods of controlling tumorigenesis and diagnosing the risk thereof” (Agency for Science, Technology and Research, priority 2007, dated 2014) are described below.

Assay [1] has as its system ERK phosphorylation in MCF10A-RCP cells.
Experimental: Western blot analysis. Whole cell lysates were prepared using RIPA buffer. The proteins were separated by SDS-PAGE and transferred to Hybond-P PVDF membrane (GE Healthcare). Antibodies to RCP (Genway, Catalog Number (CN): 15-288-21574A), β-actin (Sigma, CN: A5441), phospho-Akt (Cell Signaling Technology, CN: 9271), Akt (Cell Signaling Technology, CN: 9272), phospho-Erk (Cell Signaling Technology, CN: 9101), and Erk (Cell Signalling, CN: 9102) were used to probe the membrane, and antibody-protein complex was detected by HRP-conjugated antibodies and ECL (Amersham Biosciences).
For the MAPK inhibition assays, cells were treated with MEK inhibitor U0126 (Promega) overnight in medium with 0.5% serum before being re-plated into 96-well plates.
Assay [2] concerns MCF10A-RCP cells. To be noted: 30 uM U0126.
Experimental: Cell proliferation and colony formation. Cells were plated at a density of 5000 cells/well in 96-well plates, and cell proliferation was measured in quadruplicate (ie, 4 wells per condition) using WST-1 (Roche) according to the manufacturer's protocol. For the MAPK inhibition assays, cells were treated with MEK inhibitor U0126 (Promega) overnight in medium with 0.5% serum before being re-plated into 96-well plates.

Consider `N#CC(=C(/N)Sc1ccccc1N)/C(C#N)=C(\N)Sc1ccccc1N` [U0126], for which the “RCP-induced phosphorylation of ERK” value in assay [1] (30 μM of U0126) was “reduced to baseline”. In addition, in assay [1] (range of U0126 concentrations), the ERK phosphorylation status result is “concentration dependent”. In addition, the proliferation result in assay [2] is recorded as “reduction of proliferation down to control levels”.
